Assay results taken from patent US10544156B2, “Hemi-synthetic trilobine analogs for use as a drug” (PIERRE FABRE MEDICAMENT, priority 2015, dated 2020).

Key:
Type in all cases: cell-based, human
[1] = test system: CMV promoter in KG-1-Luc cells; test: CMV promoter analysis by NOMe-Seq (CpG methylation and chromatin accessibility); conditions: at 5 μM, 24 h; for DNA demethylation, KG1 CMV-Luc model: methylated cytosine treated vs non treated; for Chromatin accessibility, KG1 CMV-Luc model: ratio of GpC methylation
Experimental: Using the Nucleosome Occupancy and Methylome Sequencing (NOMe-Seq) technique, the methylation status of the CMV promoter and the position of the nucleosomes on such promoter were both analysed.
NOMe-seq is a modified version of the methylation-dependent single promoter assay described by Miranda et al. (Curr Protoc Mol Biol. 2010 21.17.1-16) and the methylase-based DNA assay was performed as previously described with minor modifications. After nuclei extraction, GpC DNA methyltransferase M.CviPI (New England Biolabs) reactions were done in M.CviPI reaction buffer. GpC methyltransferase treatment was followed by DNA extraction, sodium bisulfite conversion, PCR amplification of the region of interest, cloning, and sequencing of individual clones to reveal the structure of single replicas as functional units. After treatment with the compounds or with DMSO, KG-1-Luc cells were centrifuged for 5 min at 500×g. Cell pellets were washed in ice-cold PBS, resuspended in 1 mL of ice-cold nuclei buffer [10 mM Tris (pH 7.4), 10 mM NaCl, 3 mM MgCl2, 0.1 mM EDTA, and 0.5% Nonidet P-40, plus protease inhibitors] per 2×10^6 cells, and incubated on ice for 10 min. Nuclei were recovered by centrifugation at 900×g for 5 min, washed twice in nuclei wash buffer [10 mM Tris (pH 7.4), 10 mM NaCl, […], and 0.1 mM EDTA containing protease inhibitors], and resuspended with 200 μL in 1×M.CviPI reaction buffer supplemented with 0.3 M sucrose, 160 μM SAM (New England Biolabs). 100 μL of purified genomic DNA were treated with 100 U of M.CviPI for 15 min at 37° C. in 200 μL final volume. The other part of 100 μL of purified genomic DNA were not treated with 100 U of M.CviPI but just incubated for 15 min at 37° C. to obtain CpG methylation profile. Reactions were stopped by the addition of an equal volume of stop solution [20 mM Tris.HCl (pH 7.9), 600 mM NaCl, 1% SDS, 10 mM EDTA, and 400 μg/mL Proteinase K] and incubated at 55° C. overnight. DNA was purified by phenol/chloroform extraction and ethanol precipitation. Bisulfite conversion was performed with the EZ DNA Methylation-Gold Kit (Zymo Research). Bisulfited DNA was eluted with 12 μL of water and 8 μL were used for CMV amplification.
The CMV promoter DNA amplification was carried on 8.3 μL eluted bisulfited DNA in 20 μL PCR reaction containing 1×KAPA2G Buffer A, 2.0 mM MgCl2, 200 μM dNTPs, 125 nM each primer and 1.0 units KAPA2G™ Robust HotStart DNA Polymerase (KapaBiosystems) on C1000 Touch™ thermal cycler 95° C. 3 min following by 95° C. for 20 sec, 55° C. for 30 sec, 72° C. for 30 sec×40 cycles and final extension at 72° C. 1 min. PCR fragments were quality controlled by agarose gel electrophoresis.
Steps of cloning and sequencing were as those described previously except that M13 PCR was used to amplify the cloned sequence in 20 μL PCR reaction volume containing 1×KAPA2G Buffer B, 2.0 mM MgCl2, 200 μM dNTPs, 125 nM each primer and 1.0 U KAPA2G™ Robust HotStart DNA Polymerase (KapaBiosystems) on C1000 Touch™ thermal cycler 95° C. 3 min following by 95° C. for 20 sec, 55° C. for 30 sec, 72° C. for 30 sec×40 cycles and final extension at 72° C. 1 min.
Genomic alignment and bisulfite sequence analysis was performed largely as previously described (Berman et al. Nat Genet 2012, 44, 40-6).
BISMA (Bisulfite Sequencing DNA Methylation Analysis) software was used for CpG methylation analysis of primary bisulfite sequencing data from subcloned individual molecules (Rohde et al. BMC Bioinformatics 2010, 11, 230). Methyl Viewer (Pardo et al. Nucleic Acids Res 2011, 39, e5) was used to obtain GC methylation results and nucleosome occupancy. The ratio of methylation is representative of the chromatin accessibility by M.CviPI and nucleosome occupancy. The combined methylation status for each clone by CpG (BISMA) or GpC (Methyl Viewer) site has been assembled. […]

[2] = test system: P16 promoter in colon cancer cells HCT116; test: C5 DNA methylation analysis of CDKN2A (P16) promoter by COBRA; conditions: at 0.1 μM
Experimental: Cancer cell lines (colon HCT116 or leukaemia KG1) were treated with the compounds as indicated in the Data Tables and then analysed as following.
DNA was isolated from cultured cells using the DNeasy Blood and Tissue Kit according to the manufacturer's specifications (Qiagen). DNA bisulphite conversion was performed on 2 μg of DNA using the EZ DNA Methylation-Gold Kit according to the manufacturer's specifications (Zymo Research) and bisulfited DNA was eluted with 10 μL of water.
Two different techniques were used to analyse the DNA methylation profile after bisulfite conversion of genomic DNA: (A) cloning and sequencing or (B) COBRA. The primers for each promoter are specified in Table 4.
This technique is a variation of bisulfite sequencing and combines bisulfite conversion based polymerase chain reaction with restriction digestion. DNA methylation levels are easily and quickly measured at fewer CpG sites than bisulfite-cloning-sequencing.
DNA amplification was set up with 100 ng eluted bisulfited DNA in 50 μL PCR reaction containing 1×PCR buffer, 2.5 mM MgCl2, 0.3 mM dNTPs, 400 nM each primer and 1.25 units EpiTaq HS (Takara) on C1000 Touch™ thermal cycler by 98° C. for 10 sec, 55° C. for 30 sec, 72° C. for 30 sec×40 cycles. 20 μL of PCR amplicons were digested in 30 μL by 2 units of BsiEI at 60° C. for 90 min. DNA fragments were migrated by 2% agarose gel electrophoresis and each band was quantified by Image Lab Software v2.0 (BioRad Laboratories).

[3] = test system: luciferase reporter gene under control of methylated CMV promoter in KG-1 cells; test: CMV-luc reexpression in KG-1 cells; conditions: for Induction Fold (IF) of luciferase gene reporter in KG-1 CMV-Luc: 24 h, vs DMSO; for IF-24 h, KG1 CMV-Luc model: at 5 μM, 24 h (Table 5)
Experimental: KG-1 cells were stably transfected with the firefly luciferase reporter gene (luc+ from pGL3; Promega) under the control of the cytomegalovirus (CMV) promoter (from pEGFP-N1; Clontech Laboratories Inc.) partially methylated (50%). 20,000 cells per well were seeded in a 96-well plate. After 24 h incubation in the presence of the test compound or solvant (DMSO), the induction of the promoter was measured by quantification of the luciferase signal with the Brite-lite assay system (PerkinElmer) according to the manufacturer's protocol. The luminescence was measured on an EnVision multilabel plate reader (PerkinElmer), and the data are expressed as the fold induction as compared with the DMSO control. The mean of three experiments and the standard error is reported.

CCN(CC)CCCNC(=S)N1CCc2cc3c4cc2[C@@H]1Cc1ccc(OC)c(c1)Oc1ccc(cc1)C[C@H]1c2c(cc(OC)c(c2O4)O3)CCN1C(=S)NCCCN(CC)CC [Product 41]
DNA demethylation, KG1 CMV-Luc model [1]: 0%
Chromatin accessibility, KG1 CMV-Luc model [1]: 2.1 ± 0.1
Demethylation (COBRA) P16/HCT116 ([2]; after 7 days): 0% after 7 days (at 0.1 μM)
Induction Fold (IF) of luciferase gene reporter in KG-1 CMV-Luc ([3]; 0.1 μM): 1.1 ± 0.1
Induction Fold (IF) of luciferase gene reporter in KG-1 CMV-Luc ([3]; 0.32 μM): 1.1 ± 0.1
Induction Fold (IF) of luciferase gene reporter in KG-1 CMV-Luc ([3]; 1 μM): 1.3 ± 0.1
Induction Fold (IF) of luciferase gene reporter in KG-1 CMV-Luc ([3]; 3.2 μM): 2.0 ± 0.3
Induction Fold (IF) of luciferase gene reporter in KG-1 CMV-Luc ([3]; 5 μM): 2.8 ± 0.2
Induction Fold (IF) of luciferase gene reporter in KG-1 CMV-Luc ([3]; 10 μM): 3.1 ± 0.4
IF-24 h, KG1 CMV-Luc model [3]: 3.3 ± 0.1

CNC(=O)N1CCc2cc(OC)c3c4c2[C@@H]1Cc1ccc(cc1)Oc1cc(ccc1OC)C[C@H]1c2cc(c(cc2CCN1C)O3)O4 [Product 44]
DNA demethylation, KG1 CMV-Luc model [1]: −53 ± 6%
Chromatin accessibility, KG1 CMV-Luc model [1]: 2.3 ± 0.2
Demethylation (COBRA) P16/HCT116 ([2]; after 7 days): 0% after 7 days (at 0.1 μM)
Induction Fold (IF) of luciferase gene reporter in KG-1 CMV-Luc ([3]; 0.1 μM): 1.1 ± 0.1
Induction Fold (IF) of luciferase gene reporter in KG-1 CMV-Luc ([3]; 0.32 μM): 1.1 ± 0.1
Induction Fold (IF) of luciferase gene reporter in KG-1 CMV-Luc ([3]; 1 μM): 1.3 ± 0.1
Induction Fold (IF) of luciferase gene reporter in KG-1 CMV-Luc ([3]; 3.2 μM): 2.0 ± 0.1
Induction Fold (IF) of luciferase gene reporter in KG-1 CMV-Luc ([3]; 5 μM): 2.5 ± 0.9
Induction Fold (IF) of luciferase gene reporter in KG-1 CMV-Luc ([3]; 10 μM): 9.0 ± 1.3
IF-24 h, KG1 CMV-Luc model [3]: 5.9 ± 0.2

COc1ccc2cc1Oc1ccc(cc1)C[C@@H]1NCCc3cc(OC)c4c(c31)Oc1cc3c(cc1O4)CCN(C)[C@H]3C2 [Trilobine (1), trilobine]
DNA demethylation, KG1 CMV-Luc model [1]: −37 ± 8%
Chromatin accessibility, KG1 CMV-Luc model [1]: 1.9 ± 0.1
Demethylation (COBRA) P16/HCT116 ([2]; after 3 days): −37% after 3 days
Demethylation (COBRA) P16/HCT116 ([2]; after 7 days): −52% after 7 days
Demethylation (COBRA) P16/HCT116 ([2]; after 21 days): −53% after 21 days
Induction Fold (IF) of luciferase gene reporter in KG-1 CMV-Luc ([3]; 0.1 μM): 1.1 ± 0.1
Induction Fold (IF) of luciferase gene reporter in KG-1 CMV-Luc ([3]; 0.32 μM): 1.9 ± 1.2
Induction Fold (IF) of luciferase gene reporter in KG-1 CMV-Luc ([3]; 1 μM): 2.6 ± 1.4
Induction Fold (IF) of luciferase gene reporter in KG-1 CMV-Luc ([3]; 3.2 μM): 3.5 ± 1.1
Induction Fold (IF) of luciferase gene reporter in KG-1 CMV-Luc ([3]; 5 μM): 6.4 ± 0.1
IF-24 h, KG1 CMV-Luc model [3]: 5.8 ± 0.6
